In general, EC50 refers to the midpoint of the concentration-response curve. Read a low EC50 as greater potency.

The source of these data is patent publication US20080076824A1, “Compounds That Inhibit Replication Of Human Immunodeficiency Virus” (priority 2004, published 2008).

Data set [1] is described as follows: Cytotoxicity / cell proliferation in CEM cells. Conditions: human.
A further data set concerns CEM cells. The experiment in a line: Cytotoxicity / cell proliferation in CEM cells.

Residues, ends and D or L forms follow the SMILES beside them.

On to `NCC(=O)N1CCC[C@H]1C(=O)NCC(N)=O` [GPG-NH2, glycylprolylglycinamide] (H-Gly-Pro-Gly-NH2), for which the EC50 in data set [1] is over 2 mM. The “no cytotoxicity at concentrations as high as” value in the data set with CEM cells fell in the range of 1500 to 2000 µM.
